Experimental data reported in the NIST ThermoML archive (doi:10.1021/je201334p).

Experiments:
[1] = xn = mol fraction of the nth substance listed; settings: 101 kPa, Liquid; for speed of sound: Sing-around technique in a fixed-path interferometer; for mass density: Vibrating tube method
[2] = refractive index (Na D-line) (dimensionless); xn = mol fraction of the nth substance listed; settings: 101 kPa, Liquid, Standard Abbe refractometry

COS(=O)(=O)[O-].C[n+]1ccccc1 [1-methylpyridinium methylsulfate] + O
Settings	mass density, 288.15 K [kg/m3]	mass density, 298.15 K [kg/m3]	mass density, 308.15 K [kg/m3]	refractive index, 288.15 K	refractive index, 298.15 K	refractive index, 308.15 K	speed of sound, 288.15 K [m/s]	speed of sound, 298.15 K [m/s]	speed of sound, 308.15 K [m/s]
[1], x2 = 0	1352.86	1346.12	1339.37	–	–	–	1901.1	1875.8	1852.4
[1], x2 = 0.0574	1350.36	1343.61	1336.86	–	–	–	1900.5	1876	1852.3
[1], x2 = 0.073	1349.61	1342.85	1336.11	–	–	–	1901.4	1876.4	1852.7
[1], x2 = 0.1111	1347.74	1340.98	1334.23	–	–	–	1901.9	1877.4	1853.7
[1], x2 = 0.1927	1343.32	1336.56	1329.82	–	–	–	1903.2	1879.2	1855.8
[1], x2 = 0.2941	1336.61	1329.85	1323.12	–	–	–	1906.5	1882.6	1859.2
[1], x2 = 0.4005	1327.54	1320.8	1314.09	–	–	–	1909.5	1886.2	1863.4
[1], x2 = 0.4996	1316.5	1309.79	1303.09	–	–	–	1912.2	1889.5	1867
[1], x2 = 0.6077	1299.41	1292.74	1286.07	–	–	–	1913.2	1891	1868.9
[1], x2 = 0.7064	1276.09	1269.51	1262.91	–	–	–	1906.8	1885.4	1863.4
[1], x2 = 0.8058	1237.51	1231.17	1224.76	–	–	–	1878	1859.2	1837.7
[1], x2 = 0.901	1168.89	1163.31	1157.51	–	–	–	1782.3	1772.7	1760.4
[1], x2 = 0.9497	1107.24	1102.67	1097.68	–	–	–	1670.4	1673.5	1673.4
[1], x2 = 0.9645	1081.91	1077.85	1073.27	–	–	–	1622.5	1633.3	1637.2
[2], x2 = 0	–	–	–	1.51603	1.5134	1.51077	–	–	–
[2], x2 = 0.0574	–	–	–	1.51462	1.51199	1.50937	–	–	–
[2], x2 = 0.073	–	–	–	1.51423	1.51159	1.50895	–	–	–
[2], x2 = 0.1111	–	–	–	1.51315	1.51052	1.50794	–	–	–
[2], x2 = 0.1927	–	–	–	1.51059	1.50803	1.50539	–	–	–
[2], x2 = 0.2941	–	–	–	1.50679	1.50426	1.5017	–	–	–
[2], x2 = 0.4005	–	–	–	1.50177	1.49921	1.49665	–	–	–
[2], x2 = 0.4996	–	–	–	1.49567	1.49314	1.49057	–	–	–
[2], x2 = 0.6077	–	–	–	1.48632	1.48384	1.48134	–	–	–
[2], x2 = 0.7064	–	–	–	1.47388	1.47142	1.46886	–	–	–
[2], x2 = 0.8058	–	–	–	1.45378	1.45141	1.44897	–	–	–
[2], x2 = 0.901	–	–	–	1.41884	1.4167	1.41447	–	–	–
[2], x2 = 0.9497	–	–	–	1.38778	1.38593	1.38397	–	–	–
[2], x2 = 0.9645	–	–	–	1.37506	1.37336	1.37158	–	–	–
